Data published in ChEMBL document CHEMBL1914447, “Novel orally active antimalarial thiazoles” (J Med Chem, 2011).
In brackets after ≈: the same amount, converted by molar mass.

Tests used:
[1] = tested on: Plasmodium falciparum; experiment: microbe, parasite or virus in culture; conditions: NF54
[2] = tested on: Liver; experiment: Metabolic stability in mouse liver microsomes at 1 uM by LC-MS analysis; assay type: ADME, Microsome
[3] = Kinetic solubility of the compound by nephelometry at pH 6.5; assay type: physicochemical; conditions: buffer, read-out: Kinetic_solubility
[4] = tested on: Liver microsomes; experiment: Metabolic stability in human liver microsomes at 1 uM by LC-MS analysis; assay type: ADME, Microsome
[5] = Lipophilicity, log D of the compound by gradient HPLC at pH 3.0; assay type: physicochemical; conditions: buffer
[6] = Lipophilicity, log D of the compound by gradient HPLC at pH 7.4; assay type: physicochemical; conditions: buffer
[7] = tested on: Plasmodium falciparum; experiment: microbe, parasite or virus in culture; conditions: K1
[8] = tested on: Liver microsomes; experiment: Metabolic stability in rat liver microsomes at 1 uM by LC-MS analysis; assay type: ADME, Microsome
[9] = Kinetic solubility of the compound by nephelometry at pH 2.0; assay type: physicochemical; conditions: buffer, read-out: Kinetic_solubility
[10] = tested on: Plasmodium berghei; experiment: Antimalarial activity against GFP-transfected Plasmodium berghei ANKA infected in NMRI mouse assessed as mean survival time at 100 mg/kg, po administered as single dose; assay type: functional
[11] = tested on: Plasmodium berghei; experiment: Antimalarial activity against GFP-transfected Plasmodium berghei ANKA infected in NMRI mouse assessed as mean survival time at 10 mg/kg, po administered as single dose; assay type: functional
[12] = tested on: Plasmodium berghei; experiment: Antimalarial activity against GFP-transfected Plasmodium berghei ANKA infected in po dosed NMRI mouse assessed as reduction in parasitemia administered as single dose after 72 hrs by flow cytometry; assay type: functional
[13] = tested on: Plasmodium berghei; experiment: Antimalarial activity against GFP-transfected Plasmodium berghei ANKA infected in NMRI mouse assessed as reduction in parasitemia at 10 mg/kg, po administered as single dose after 72 hrs by flow cytometry; assay type: functional; parameters: scale not given: the % may be the effect or the level left
[14] = tested on: Plasmodium berghei; experiment: Antimalarial activity against GFP-transfected Plasmodium berghei ANKA infected in NMRI mouse assessed as reduction in parasitemia at 30 mg/kg, po administered as single dose after 72 hrs by flow cytometry; assay type: functional; parameters: scale not given: the % may be the effect or the level left
[15] = tested on: Plasmodium berghei; experiment: Antimalarial activity against GFP-transfected Plasmodium berghei ANKA infected in NMRI mouse assessed as reduction in parasitemia at 100 mg/kg, po administered as single dose after 72 hrs by flow cytometry; assay type: functional; parameters: scale not given: the % may be the effect or the level left
[16] = tested on: Plasmodium berghei; experiment: Antimalarial activity against GFP-transfected Plasmodium berghei ANKA infected in NMRI mouse assessed as mean survival time at 30 mg/kg, po administered as single dose; assay type: functional

| SMILES | IC50 [1] [µM] | Stability [2] | solubility kinetic [3] [µg/mL] | Stability [4] | chromatographic logD [5] | chromatographic logD [6] | IC50 [7] [µM] | Stability [8] | solubility kinetic [9] [µg/mL] | MSD [10] [days] | MSD [11] [days] | ED50 [12] [mg/kg] | ED90 [12] [mg/kg] | Activity [13] [%] | Activity [14] [%] | Activity [15] [%] | MSD [16] [days] |
| --- | --- | --- | --- | --- | --- | --- | --- | --- | --- | --- | --- | --- | --- | --- | --- | --- | --- |
| CC(C)(C)c1cc(C(=O)Nc2cccnc2)n(Cc2ccccc2)n1 | 4.99 | Unstable | 6.3 (≈ 18.8 µM) | Unstable | 3.5 | 3.8 | 6.45 | Unstable | > 100 | – | – | – | – | – | – | – | – |
| CC(C)(C)c1cc(C(=O)Nc2ccncc2)n(Cc2ccccc2)n1 | 3.88 | Unstable | 6.3 (≈ 18.8 µM) | Unstable | 2.6 | 4 | 7.05 | Unstable | > 100 | – | – | – | – | – | – | – | – |
| CC(C)(C)c1cc(C(=O)Nc2ccccn2)n(Cc2ccccc2)n1 | 10.5 | Unstable | 6.3 (≈ 18.8 µM) | Unstable | 4.5 | 4.5 | 10.2 | Unstable | 25 (≈ 74.8 µM) | – | – | – | – | – | – | – | – |
| CC(C)(C)c1cc(C(=O)Nc2ccccc2)n(Cc2ccccc2)n1 | 7.92 | Unstable | 1.6 (≈ 4.8 µM) | Unstable | 4.7 | 4.7 | 11 | Unstable | 1.6 (≈ 4.8 µM) | – | – | – | – | – | – | – | – |
| Cc1csc(NC(=O)c2cc(C(C)(C)C)nn2Cc2ccccc2)n1 | 4.12 | Unstable | < 1.6 | Unstable | 4.7 | 4.7 | 4.94 | Unstable | < 1.6 | – | – | – | – | – | – | – | – |
| CC(C)(C)c1cc(C(=O)Nc2cccc(CN)c2)n(Cc2ccccc2)n1 | 2.15 | Stable | 25 (≈ 69 µM) | Stable | 2.2 | 2.9 | 1.47 | Stable | > 100 | – | – | – | – | – | – | – | – |
| CC(=O)NCc1csc(NC(=O)c2cc(C(C)(C)C)nn2Cc2ccccc2)n1 | 6.24 | Unstable | 12.5 (≈ 30.4 µM) | Unstable | 3.3 | 3.3 | 4.27 | Unstable | 12.5 (≈ 30.4 µM) | – | – | – | – | – | – | – | – |
| CC(C)(C)c1cc(C(=O)Nc2nc(CNS(C)(=O)=O)cs2)n(Cc2ccccc2)n1 | 4.68 | Unstable | 3.1 (≈ 6.93 µM) | Unstable | 3.7 | 3.7 | 2.93 | Unstable | 3.1 (≈ 6.93 µM) | – | – | – | – | – | – | – | – |
| CN(C)Cc1csc(NC(=O)c2cc(C(C)(C)C)nn2Cc2ccccc2)n1 | 2.41 | Unstable | 25 (≈ 62.9 µM) | Unstable | 2.6 | 4.2 | 1.48 | Unstable | > 100 | – | – | – | – | – | – | – | – |
| CNCc1csc(NC(=O)c2cc(C(C)(C)C)nn2Cc2ccccc2)n1 | 0.16 | Stable | 12.5 (≈ 32.6 µM) | Stable | 2.6 | 3.8 | 0.19 | Stable | 25 (≈ 65.2 µM) | – | – | – | – | – | – | – | – |
| CC(C)(C)c1cc(C(=O)Nc2nc(CO)cs2)n(Cc2ccccc2)n1 | 0.71 | Unstable | 3.1 (≈ 8.37 µM) | Unstable | 3.5 | 3.4 | 0.67 | Unstable | 12.5 (≈ 33.7 µM) | – | – | – | – | – | – | – | – |
| Cn1nc(C(C)(C)C)cc1C(=O)Nc1nc(CN)cs1 | > 34.1 | – | 50 (≈ 170 µM) | – | 1.2 | 1.6 | 34.1 | – | > 100 | – | – | – | – | – | – | – | – |
| NCc1csc(NC(=O)c2ccn[nH]2)n1 | > 44.8 | – | > 100 | – | 0 | 0.1 | > 44.8 | – | > 100 | – | – | – | – | – | – | – | – |
| NCc1csc(NC(=O)c2cc3ccccc3o2)n1 | > 36.6 | – | 50 (≈ 183 µM) | – | 1.1 | 1.5 | 36.6 | – | > 100 | – | – | – | – | – | – | – | – |
| NCc1csc(NC(=O)c2cc3ccccc3n2Cc2ccccc2)n1 | 10.3 | – | 1.6 (≈ 4.41 µM) | – | 2.4 | 3 | 6.98 | – | 25 (≈ 69 µM) | – | – | – | – | – | – | – | – |
| COc1ccc(C(=O)Nc2nc(CN)cs2)cc1 | 13.1 | – | 25 (≈ 94.9 µM) | – | 0.9 | 1.2 | 11.1 | – | 50 (≈ 190 µM) | – | – | – | – | – | – | – | – |
| NCc1csc(NC(=O)c2cccnn2)n1 | > 42.5 | – | 50 (≈ 213 µM) | – | 0 | 0.2 | 42.5 | – | > 100 | – | – | – | – | – | – | – | – |
| NCc1csc(NC(=O)c2ccon2)n1 | > 44.6 | – | 50 (≈ 223 µM) | – | 0 | -0.1 | > 44.6 | – | 50 (≈ 223 µM) | – | – | – | – | – | – | – | – |
| NCc1csc(NC(=O)c2cc3ccccc3[nH]2)n1 | 30.4 | – | 25 (≈ 91.8 µM) | – | 1.1 | 1.4 | 22.2 | – | > 100 | – | – | – | – | – | – | – | – |
| NCc1csc(NC(=O)c2ccccc2)n1 | > 42.9 | – | 25 (≈ 107 µM) | – | 0.7 | 1 | 42.9 | – | > 100 | – | – | – | – | – | – | – | – |
| NCc1csc(NC(=O)c2ccc(Cl)cc2)n1 | > 37.5 | – | 25 (≈ 93.4 µM) | – | 1.2 | 1.6 | 37.5 | – | > 100 | – | – | – | – | – | – | – | – |
| NCc1csc(NC(=O)c2ccccn2)n1 | > 42.7 | – | > 100 | – | 0.3 | 0.7 | > 42.7 | – | > 100 | – | – | – | – | – | – | – | – |
| NCc1csc(NC(=O)c2ncccn2)n1 | > 42.5 | – | > 100 | – | -0.2 | -0.1 | > 42.5 | – | > 100 | – | – | – | – | – | – | – | – |
| NCc1csc(NC(=O)c2cnn[nH]2)n1 | > 44.6 | – | > 100 | – | -0.2 | -0.3 | > 44.6 | – | > 100 | – | – | – | – | – | – | – | – |
| NCc1csc(NC(=O)c2cnnn2Cc2ccccc2)n1 | > 3.18 | – | 50 (≈ 159 µM) | – | 1.3 | 1.6 | > 3.18 | – | > 100 | – | – | – | – | – | – | – | – |
| NCc1csc(NC(=O)c2cn(Cc3ccccc3)nn2)n1 | > 3.18 | – | 25 (≈ 79.5 µM) | – | 1.1 | 1.4 | > 3.18 | – | 50 (≈ 159 µM) | – | – | – | – | – | – | – | – |
| C[C@H]1[C@H](OC(=O)CCC(=O)O)O[C@@H]2O[C@@]3(C)CC[C@H]4[C@H](C)CC[C@@H]1[C@@]24OO3 [ARTESUNATE] | 0.004 | – | – | – | – | – | 0.003 | – | – | – | – | – | – | – | – | – | – |
| CCN(CC)CCCC(C)Nc1ccnc2cc(Cl)ccc12 (centres undefined) [CHLOROQUINE] | – | – | – | – | – | – | – | – | – | 12 | 7 | 1.9 | 4.2 | 99.5 | 99.7 | >99.9 | 9 |
